From patent publication US20220227759A1, “AMORPHOUS PI3K INHIBITOR AND PHARMACEUTICAL COMPOSITION COMPRISING SAME” (BORYUNG PHARMACEUTICAL CO., LTD, priority 2019, published 2022)

Test: Pharmacokinetic (PK) test
Type: in vivo
Details: beagle dog, 100 mg, PO, capsule
Description: A pharmacokinetic (PK) experiment was performed on the amorphous compound of Example 1.
The powder of the amorphous compound of Example 1 was filled into a capsule in an amount of 100 mg, and the capsule was orally administered to a beagle dog at 100 mg once a day, and then the biokinetics of the drug was confirmed.
Specifically, 100 mg of the amorphous compound was orally administered to the beagle dog, and blood was collected at a predetermined time, so as to measure a concentration of (S)-4-((1-(4,8-dichloro-1-oxo-2-phenyl-1,2-dihydroisoquinoline-3-yl)ethyl)amino)pyrido[2,3-d]pyrimidine-5(8H)-one. With respect to pharmacokinetic parameters, the BA Calc 2007 program was used to calculate an area under the plasma concentration-time curve from dosing time to final plasma concentration quantification time t (AUCt), an area under the plasma concentration-time curve from dosing time to infinite time (AUCi), peak plasma concentration (Cmax), time for peak plasma concentration (Tmax), and terminal elimination half-life (t1/2). As a result, a significance between substances was confirmed by Student t-test (SPSS) at a 95% confidence interval, and the results thereof are shown in table 4 below.

C[C@H](Nc1ncnc2[nH]ccc(=O)c12)c1c(Cl)c2cccc(Cl)c2c(=O)n1-c1ccccc1 [Example 1, (S)-4-((1-(4,8-dichloro-1-oxo-2-phenyl-1,2-dihydroisoquinoline-3-yl)ethyl)amino)pyrido[2,3-d]pyrimidin-5(8H)-one]
blood concentration: high blood concentration
